Laboratory results published in ChEMBL document CHEMBL4507311, “Data for DCP probe A-1155463” (2021).

Experiments:
[1] = system: Tyrosine-protein kinase ABL1 (Homo sapiens), P00519 [M351T]; details: Compound concentration 1000.0 nM
[2] = biological target: Ribosomal protein S6 kinase alpha-5 (Homo sapiens) (UniProt O75582); details: Compound concentration 1000.0 nM
[3] = system: Tyrosine-protein kinase ABL1 (Homo sapiens), P00519 [F317L]; details: Compound concentration 1000.0 nM
[4] = biological target: Calcium/calmodulin-dependent protein kinase type 1 (Homo sapiens) (UniProt Q14012); details: Compound concentration 1000.0 nM
[5] = biological target: Tyrosine-protein kinase ABL1 (Homo sapiens) (UniProt P00519); details: Compound concentration 1000.0 nM
[6] = biological target: Mitogen-activated protein kinase 11 (Homo sapiens) (UniProt Q15759); details: Compound concentration 1000.0 nM
Sequence of Mitogen-activated protein kinase 11 (Homo sapiens) (Q15759 whole entry): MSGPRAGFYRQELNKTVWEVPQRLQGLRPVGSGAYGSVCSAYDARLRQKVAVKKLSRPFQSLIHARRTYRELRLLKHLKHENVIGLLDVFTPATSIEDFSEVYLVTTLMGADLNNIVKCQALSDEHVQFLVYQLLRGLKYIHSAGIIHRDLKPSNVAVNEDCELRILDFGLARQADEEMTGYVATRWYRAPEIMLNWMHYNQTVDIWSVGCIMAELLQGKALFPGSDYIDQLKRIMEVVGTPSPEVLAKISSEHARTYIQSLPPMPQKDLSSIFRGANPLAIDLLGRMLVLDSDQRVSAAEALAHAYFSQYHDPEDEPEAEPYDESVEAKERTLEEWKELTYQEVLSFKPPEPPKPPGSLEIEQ

[7] = biological target: Leukocyte tyrosine kinase receptor (Homo sapiens) (UniProt P29376); details: Compound concentration 1000.0 nM
[8] = biological target: Rho-associated protein kinase 1 (Homo sapiens) (UniProt Q13464); details: Compound concentration 1000.0 nM
[9] = biological target: Ribosomal protein S6 kinase alpha-1 (Homo sapiens) (UniProt Q15418); details: Compound concentration 1000.0 nM
[10] = biological target: Protein kinase C iota type (Homo sapiens) (UniProt P41743); details: Compound concentration 1000.0 nM
[11] = system: Receptor-type tyrosine-protein kinase FLT3 (Homo sapiens), P36888 [D835V]; details: Compound concentration 1000.0 nM
[12] = biological target: Homeodomain-interacting protein kinase 1 (Homo sapiens) (UniProt Q86Z02); details: Compound concentration 1000.0 nM
[13] = system: Epidermal growth factor receptor (Homo sapiens), P00533 [UNDEFINED MUTATION]; details: Compound concentration 1000.0 nM
[14] = biological target: Tyrosine-protein kinase Fer (Homo sapiens) (UniProt P16591); details: Compound concentration 1000.0 nM
Sequence of Tyrosine-protein kinase Fer (Homo sapiens) (P16591 whole entry, looked up): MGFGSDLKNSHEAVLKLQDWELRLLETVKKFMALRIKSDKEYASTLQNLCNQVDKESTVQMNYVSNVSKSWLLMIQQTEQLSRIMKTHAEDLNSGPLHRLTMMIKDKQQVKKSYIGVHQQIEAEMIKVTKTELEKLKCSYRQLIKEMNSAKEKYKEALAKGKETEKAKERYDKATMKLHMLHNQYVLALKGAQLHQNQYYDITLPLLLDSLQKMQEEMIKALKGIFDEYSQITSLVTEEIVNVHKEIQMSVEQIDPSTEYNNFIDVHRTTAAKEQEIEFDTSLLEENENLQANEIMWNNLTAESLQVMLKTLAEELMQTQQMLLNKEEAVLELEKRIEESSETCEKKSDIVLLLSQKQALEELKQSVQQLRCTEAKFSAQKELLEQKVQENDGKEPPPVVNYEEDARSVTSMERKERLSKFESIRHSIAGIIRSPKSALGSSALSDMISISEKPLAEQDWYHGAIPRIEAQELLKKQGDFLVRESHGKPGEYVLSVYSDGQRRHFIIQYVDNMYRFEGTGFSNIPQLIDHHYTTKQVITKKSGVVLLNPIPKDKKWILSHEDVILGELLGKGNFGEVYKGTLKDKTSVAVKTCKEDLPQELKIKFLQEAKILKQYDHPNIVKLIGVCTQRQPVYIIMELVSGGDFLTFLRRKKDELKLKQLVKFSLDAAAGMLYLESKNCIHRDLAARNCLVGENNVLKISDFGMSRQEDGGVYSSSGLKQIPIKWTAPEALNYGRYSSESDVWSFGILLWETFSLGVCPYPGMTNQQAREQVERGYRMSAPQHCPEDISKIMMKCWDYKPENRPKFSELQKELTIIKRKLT

[15] = biological target: Homeodomain-interacting protein kinase 3 (Homo sapiens) (UniProt Q9H422); details: Compound concentration 1000.0 nM
[16] = biological target: Tyrosine-protein kinase FRK (Homo sapiens) (UniProt P42685); details: Compound concentration 1000.0 nM
[17] = system: Epidermal growth factor receptor (Homo sapiens), P00533 [G719S]; details: Compound concentration 1000.0 nM
[18] = biological target: 5-hydroxytryptamine receptor 2A (Homo sapiens) (UniProt P28223); details: Compound concentration 10.0 uM
Sequence of 5-hydroxytryptamine receptor 2A (Homo sapiens) (P28223 whole entry, canonical isoform): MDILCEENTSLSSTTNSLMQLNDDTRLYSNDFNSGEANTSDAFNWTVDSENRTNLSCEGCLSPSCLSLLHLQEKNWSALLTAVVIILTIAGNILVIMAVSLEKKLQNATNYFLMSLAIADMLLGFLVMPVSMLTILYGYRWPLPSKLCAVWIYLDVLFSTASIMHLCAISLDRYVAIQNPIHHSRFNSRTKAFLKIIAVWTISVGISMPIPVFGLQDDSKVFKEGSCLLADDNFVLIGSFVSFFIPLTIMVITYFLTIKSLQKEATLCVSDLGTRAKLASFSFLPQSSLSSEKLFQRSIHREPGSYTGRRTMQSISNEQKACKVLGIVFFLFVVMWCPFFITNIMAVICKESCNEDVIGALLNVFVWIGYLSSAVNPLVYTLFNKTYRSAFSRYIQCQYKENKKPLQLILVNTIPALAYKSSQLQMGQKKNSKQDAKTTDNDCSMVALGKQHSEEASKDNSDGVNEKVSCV

[19] = biological target: Casein kinase I isoform epsilon (Homo sapiens) (UniProt P49674); details: Compound concentration 1000.0 nM
Sequence of Casein kinase I isoform epsilon (Homo sapiens) (P49674 whole entry, looked up, canonical isoform): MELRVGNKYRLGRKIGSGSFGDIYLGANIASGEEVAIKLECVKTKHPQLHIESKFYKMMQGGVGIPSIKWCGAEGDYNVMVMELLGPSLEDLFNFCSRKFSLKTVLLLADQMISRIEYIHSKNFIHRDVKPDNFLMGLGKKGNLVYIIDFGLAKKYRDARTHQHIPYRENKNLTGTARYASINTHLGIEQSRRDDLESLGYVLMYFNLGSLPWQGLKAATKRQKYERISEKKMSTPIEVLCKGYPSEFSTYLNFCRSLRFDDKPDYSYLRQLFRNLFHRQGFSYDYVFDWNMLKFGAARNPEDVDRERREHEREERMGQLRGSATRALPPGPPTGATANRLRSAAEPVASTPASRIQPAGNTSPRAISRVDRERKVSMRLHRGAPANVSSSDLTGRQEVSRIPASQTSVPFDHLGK

[20] = biological target: ALK tyrosine kinase receptor (Homo sapiens) (UniProt Q9UM73); details: Compound concentration 1000.0 nM
[21] = biological target: Serine/threonine-protein kinase 16 (Homo sapiens) (UniProt O75716); details: Compound concentration 1000.0 nM
[22] = biological target: Mitogen-activated protein kinase 8 (Homo sapiens) (UniProt P45983); details: Compound concentration 1000.0 nM
[23] = biological target: Serine/threonine-protein kinase ULK2 (Homo sapiens) (UniProt Q8IYT8); details: Compound concentration 1000.0 nM
[24] = biological target: Serine/threonine-protein kinase PAK 3 (Homo sapiens) (UniProt O75914); details: Compound concentration 1000.0 nM
Sequence of Serine/threonine-protein kinase PAK 3 (Homo sapiens) (O75914 whole entry, looked up): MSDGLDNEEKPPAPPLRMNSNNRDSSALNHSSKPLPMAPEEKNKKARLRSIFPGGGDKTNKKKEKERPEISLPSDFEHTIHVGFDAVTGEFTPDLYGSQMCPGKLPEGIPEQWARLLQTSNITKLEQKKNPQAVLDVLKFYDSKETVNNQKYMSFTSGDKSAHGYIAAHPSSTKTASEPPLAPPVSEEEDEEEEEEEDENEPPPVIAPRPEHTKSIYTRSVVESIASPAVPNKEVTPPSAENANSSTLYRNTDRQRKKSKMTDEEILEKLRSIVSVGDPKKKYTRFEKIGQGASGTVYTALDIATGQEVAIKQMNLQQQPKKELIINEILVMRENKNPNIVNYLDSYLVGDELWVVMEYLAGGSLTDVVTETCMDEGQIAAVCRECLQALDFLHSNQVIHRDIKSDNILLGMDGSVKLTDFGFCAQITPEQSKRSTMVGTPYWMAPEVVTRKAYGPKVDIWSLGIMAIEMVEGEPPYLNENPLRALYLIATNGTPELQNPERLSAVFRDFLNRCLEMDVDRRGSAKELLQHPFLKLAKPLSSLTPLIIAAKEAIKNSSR

[25] = biological target: RAF proto-oncogene serine/threonine-protein kinase (Homo sapiens) (UniProt P04049); details: Compound concentration 1000.0 nM
[26] = biological target: Cyclin-dependent kinase 7 (Homo sapiens) (UniProt P50613); details: Compound concentration 1000.0 nM
[27] = biological target: Tyrosine-protein kinase Mer (Homo sapiens) (UniProt Q12866); details: Compound concentration 1000.0 nM
[28] = biological target: Ephrin type-A receptor 8 (Homo sapiens) (UniProt P29322); details: Compound concentration 1000.0 nM
[29] = biological target: Tyrosine-protein kinase Fyn (Homo sapiens) (UniProt P06241); details: Compound concentration 1000.0 nM
Sequence of Tyrosine-protein kinase Fyn (Homo sapiens) (P06241 2-537 limits assumed): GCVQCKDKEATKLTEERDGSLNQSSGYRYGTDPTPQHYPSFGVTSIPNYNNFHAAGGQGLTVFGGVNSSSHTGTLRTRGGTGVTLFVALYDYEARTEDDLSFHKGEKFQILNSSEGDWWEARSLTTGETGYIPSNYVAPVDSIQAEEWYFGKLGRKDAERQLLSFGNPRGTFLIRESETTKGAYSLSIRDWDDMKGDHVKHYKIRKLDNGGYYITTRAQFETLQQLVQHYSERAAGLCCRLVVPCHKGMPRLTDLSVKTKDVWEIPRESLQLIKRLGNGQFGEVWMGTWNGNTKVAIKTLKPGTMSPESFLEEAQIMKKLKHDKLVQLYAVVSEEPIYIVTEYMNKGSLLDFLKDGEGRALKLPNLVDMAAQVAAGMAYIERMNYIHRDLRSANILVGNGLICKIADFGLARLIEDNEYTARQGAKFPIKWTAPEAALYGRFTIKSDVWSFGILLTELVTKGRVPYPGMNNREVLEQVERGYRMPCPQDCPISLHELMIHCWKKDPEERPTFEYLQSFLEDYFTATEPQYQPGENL

[30] = system: Tyrosine-protein kinase ABL1 (Homo sapiens), P00519 [F317L]; details: Compound concentration 1000.0 nM; remark: listed apart in the source
[31] = biological target: Homeodomain-interacting protein kinase 2 (Homo sapiens) (UniProt Q9H2X6); details: Compound concentration 1000.0 nM
[32] = biological target: 5'-AMP-activated protein kinase catalytic subunit alpha-1 (Homo sapiens) (UniProt Q13131); details: Compound concentration 1000.0 nM
[33] = biological target: Serine/threonine-protein kinase 24 (Homo sapiens) (UniProt Q9Y6E0); details: Compound concentration 1000.0 nM
[34] = biological target: Tyrosine-protein kinase receptor UFO (Homo sapiens) (UniProt P30530); details: Compound concentration 1000.0 nM
[35] = biological target: Cyclin-dependent kinase-like 2 (Homo sapiens) (UniProt Q92772); details: Compound concentration 1000.0 nM
[36] = biological target: Serine/threonine-protein kinase DCLK2 (Homo sapiens) (UniProt Q8N568); details: Compound concentration 1000.0 nM
[37] = system: Receptor-type tyrosine-protein kinase FLT3 (Homo sapiens), P36888 [N841I]; details: Compound concentration 1000.0 nM
[38] = biological target: Mitogen-activated protein kinase kinase kinase 12 (Homo sapiens) (UniProt Q12852); details: Compound concentration 1000.0 nM
[39] = biological target: Cytoplasmic tyrosine-protein kinase BMX (Homo sapiens) (UniProt P51813); details: Compound concentration 1000.0 nM
[40] = biological target: LIM domain kinase 2 (Homo sapiens) (UniProt P53671); details: Compound concentration 1000.0 nM
[41] = biological target: Serine/threonine-protein kinase 3 (Homo sapiens) (UniProt Q13188); details: Compound concentration 1000.0 nM
[42] = biological target: Focal adhesion kinase 1 (Homo sapiens) (UniProt Q05397); details: Compound concentration 1000.0 nM
Sequence of Focal adhesion kinase 1 (Homo sapiens) (Q05397 2-1052 limits assumed): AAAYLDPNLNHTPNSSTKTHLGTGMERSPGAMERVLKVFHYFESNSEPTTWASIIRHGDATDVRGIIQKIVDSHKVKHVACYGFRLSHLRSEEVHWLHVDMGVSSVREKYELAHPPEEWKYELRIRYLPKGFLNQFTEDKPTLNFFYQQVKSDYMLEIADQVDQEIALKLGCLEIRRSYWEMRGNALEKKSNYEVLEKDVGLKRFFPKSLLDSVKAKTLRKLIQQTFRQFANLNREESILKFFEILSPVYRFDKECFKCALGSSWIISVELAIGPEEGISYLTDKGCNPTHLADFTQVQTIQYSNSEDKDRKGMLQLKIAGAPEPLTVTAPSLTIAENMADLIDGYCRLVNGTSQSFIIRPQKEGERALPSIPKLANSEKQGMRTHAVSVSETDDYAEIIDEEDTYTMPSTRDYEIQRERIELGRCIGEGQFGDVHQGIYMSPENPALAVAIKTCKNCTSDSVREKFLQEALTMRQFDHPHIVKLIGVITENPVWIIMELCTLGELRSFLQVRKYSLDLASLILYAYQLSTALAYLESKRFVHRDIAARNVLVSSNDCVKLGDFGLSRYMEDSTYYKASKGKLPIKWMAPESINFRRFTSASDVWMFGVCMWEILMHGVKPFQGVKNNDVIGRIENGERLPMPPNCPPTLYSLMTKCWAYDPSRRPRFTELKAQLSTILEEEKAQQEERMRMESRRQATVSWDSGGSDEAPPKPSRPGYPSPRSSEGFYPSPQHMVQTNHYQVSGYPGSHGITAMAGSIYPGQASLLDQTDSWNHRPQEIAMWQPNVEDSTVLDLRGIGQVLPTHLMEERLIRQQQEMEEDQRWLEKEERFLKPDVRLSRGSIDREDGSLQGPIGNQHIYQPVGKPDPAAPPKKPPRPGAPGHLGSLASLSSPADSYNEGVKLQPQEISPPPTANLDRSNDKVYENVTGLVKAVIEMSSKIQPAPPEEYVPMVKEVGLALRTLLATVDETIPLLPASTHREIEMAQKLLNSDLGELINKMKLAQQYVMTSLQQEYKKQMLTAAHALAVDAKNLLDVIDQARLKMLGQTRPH

[43] = system: Tyrosine-protein kinase ABL1 (Homo sapiens), P00519 [F317I]; details: Compound concentration 1000.0 nM
[44] = biological target: Activin receptor type-1-like (Homo sapiens) (UniProt P37023); details: Compound concentration 1000.0 nM
[45] = biological target: Receptor-type tyrosine-protein kinase FLT3 (Homo sapiens) (UniProt P36888); details: Compound concentration 1000.0 nM
[46] = biological target: Serine/threonine-protein kinase OSR1 (Homo sapiens) (UniProt O95747); details: Compound concentration 1000.0 nM

Sequence of Ribosomal protein S6 kinase alpha-5 (Homo sapiens) (O75582 whole entry, looked up): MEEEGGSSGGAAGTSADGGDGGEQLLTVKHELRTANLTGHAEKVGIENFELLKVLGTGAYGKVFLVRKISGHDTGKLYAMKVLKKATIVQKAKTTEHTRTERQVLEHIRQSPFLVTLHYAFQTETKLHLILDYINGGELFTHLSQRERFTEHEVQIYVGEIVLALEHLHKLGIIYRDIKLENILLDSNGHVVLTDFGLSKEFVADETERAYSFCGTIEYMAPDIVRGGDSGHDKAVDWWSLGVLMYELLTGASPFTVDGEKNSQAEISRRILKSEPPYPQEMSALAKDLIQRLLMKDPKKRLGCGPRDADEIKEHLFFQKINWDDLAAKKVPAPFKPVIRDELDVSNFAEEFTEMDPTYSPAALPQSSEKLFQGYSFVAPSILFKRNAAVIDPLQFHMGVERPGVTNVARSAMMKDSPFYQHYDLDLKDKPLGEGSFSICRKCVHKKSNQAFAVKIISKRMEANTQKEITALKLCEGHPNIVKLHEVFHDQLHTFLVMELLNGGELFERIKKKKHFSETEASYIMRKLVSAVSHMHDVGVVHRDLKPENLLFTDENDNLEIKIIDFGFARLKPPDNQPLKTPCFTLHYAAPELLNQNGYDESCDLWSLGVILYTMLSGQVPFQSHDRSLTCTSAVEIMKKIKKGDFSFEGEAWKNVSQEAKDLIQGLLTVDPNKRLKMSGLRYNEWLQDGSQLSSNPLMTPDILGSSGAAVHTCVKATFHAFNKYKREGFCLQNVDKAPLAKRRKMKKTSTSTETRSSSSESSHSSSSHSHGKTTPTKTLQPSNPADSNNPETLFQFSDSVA

CN(C)CC#Cc1ccc(OCCCc2sc(N3CCc4cccc(C(=O)Nc5nc6ccccc6s5)c4C3)nc2C(=O)O)c(F)c1 [A-1155463]
inactive: residual activity [1] 91% | residual activity [2] 83% | residual activity [3] 100% | residual activity [4] 93% | residual activity [5] 100% | residual activity [6] 100% | residual activity [7] 100% | residual activity [8] 100% | residual activity [9] 81% | residual activity [10] 100% | residual activity [11] 100% | residual activity [12] 75% | residual activity [13] 86% | residual activity [14] 100% | residual activity [15] 87% | residual activity [16] 96% | residual activity [17] 100% | inhibition [18] 40.1% | residual activity [19] 86% | residual activity [20] 100% | residual activity [21] 92% | residual activity [22] 62% | residual activity [23] 100% | residual activity [24] 97% | residual activity [25] 97% | residual activity [26] 100% | residual activity [27] 100% | residual activity [28] 100% | residual activity [29] 96% | residual activity [30] 100% | residual activity [31] 100% | residual activity [32] 100% | residual activity [33] 93% | residual activity [34] 92% | residual activity [35] 98% | residual activity [36] 100% | residual activity [37] 81% | residual activity [38] 100% | residual activity [39] 82% | residual activity [40] 96% | residual activity [41] 88% | residual activity [42] 100% | residual activity [43] 100% | residual activity [44] 82% | residual activity [45] 95% | residual activity [46] 86%
